pIC50: −log10 of the molar value. Read-outs that look alike come from different tables or passages of the source.
Key:
MCL-1 = MCL-1 (Homo sapiens (Human), UniProt Q07820, K194A/K197A/R201A); experiment: Protein-protein interaction assay MCL-1/Noxa BH3 peptide (MCL-1 assay, TR-FRET); format: binding
In short: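 Competition TR-FRET with MBP-MCL-1 (aa 173-321) at 1 nM final and biotinylated Noxa BH3 peptide, pH 7 Tris buffer. Compounds pre-incubated 10 min at 22° C., then 1 h at 22° C. and overnight at 4° C. 665/620 nm ratio normalized to DMSO; IC50 from 4-parameter fit.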

[1] = target: MCL1 protein / biotinylated BIM BH3 peptide in RKO cells (Homo sapiens (Human), UniProt Q07820); experiment: PIxEL: protein-protein interaction in permeabilized cells by ELISA (Assay 5); format: cell-based; details: PIxEL IC50 (median)
Sequence of MCL1 protein / biotinylated BIM BH3 peptide in RKO cells (Q07820 whole entry): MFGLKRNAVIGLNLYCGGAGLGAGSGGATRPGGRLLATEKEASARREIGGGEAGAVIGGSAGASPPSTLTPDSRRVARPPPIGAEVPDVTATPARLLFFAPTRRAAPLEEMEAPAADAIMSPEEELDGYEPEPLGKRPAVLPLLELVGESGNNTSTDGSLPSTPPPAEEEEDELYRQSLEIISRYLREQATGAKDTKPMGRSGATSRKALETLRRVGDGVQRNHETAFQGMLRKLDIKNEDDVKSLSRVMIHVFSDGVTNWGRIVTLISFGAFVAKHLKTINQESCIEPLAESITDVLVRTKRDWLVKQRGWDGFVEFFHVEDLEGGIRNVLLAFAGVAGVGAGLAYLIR
Experimental: PIxEL: Protein-Protein Interaction in Permeabilized Cells by ELISA
Most MCL1 protein molecules are localized at the mitochondria outer membrane and sequester pro-apoptotic proteins through binding of their BCL2 homology domain 3 (BH3 domain). MEB buffer (150 mM mannitol, 10 mM HEPES pH 7.5, 50 mM KCl, 20 μM EDTA, 20 μM EGTA, 5 mM potassium succinate, 0.1% protease-free BSA (SIGMA) with low dose digitonin (0.002%) permeabilizes plasma membrane while leaves live mitochondria, where MCL1 maintains its native localization and conformation. Unlike biophysical assays (e.g. TR-FRET) that use truncated recombinant MCL1 protein, this assay uses full length endogenous MCL1 protein at mitochondria outer membrane. It measures the interaction between MCL1 protein and biotinylated BIM BH3 peptide. Compounds can compete with BIM BH3 peptide to bind to MCL1 protein.
On day 1, RKO colon cancer cell line cells were plated at 0.8 million cells/ml, 100 μl/well in 96-well flat bottom TC plates (Corning). MCL1 antibody (Santa Cruz sc-12756) were diluted at 200 fold (final concentration 1 μg/ml) in carbonate buffer (Thermo Fisher Scientific, pH 9.6), and 50 μl of diluted antibody was added to each well of high bind ELISA plates ([…]). Each plate was tapped to make sure liquid covering entire bottom of wells and incubate at 37° C. overnight.
On the second day, MCL1 antibody was washed from ELISA plate. 250 μl Odyssey® Blocking Buffer (PBS) (Li-Cor) was added to each well, incubated at room temperature for at least 1 hour, then washed once with 250 μl 1×PBST. Plates with RKO cells were gently washed once with 100 μl/well PBS, once with 100 μl/well MEB buffer without digitonin, then 100 μl of MEB buffer with 0.002% digitonin was gently added to each well. Compounds were added with HP Tecan compound dispenser in 3-fold dilution series, highest dose 30 μM, 10-dose per compound in quadruplicates. Biotin-BIM peptide (synthesized by 21st Century) was added with HP Tecan compound dispenser at 0.2 μM immediately after the addition of compounds. Plates were rocked for 1 hour at room temperature. Then MEB buffer was aspirated and 50 μl of CHAPS buffer (50 mM Tris-Cl, pH 7.4, 150 mM NaCl, 1% CHAPS, 1 mM EDTA, 1 mM EGTA, cOmplete protease inhibitors (Roche), PhosSTOP (Roche)) was added to each well. Plates were rocked for 1 hour at 4° C., then 45 μl cell lysate from each well were transferred to ELISA plates coated with MCL1 antibody. Plates were incubated overnight in the cold room with rocking.
On the third day, ELISA plates were washed once with 250 μl 1×PBST. Streptavidin-poly-HRP (Thermo Fisher Scientific) was diluted to 20 ng/ml in Odyssey blocking buffer plus 0.05% Triton-100, and 100 μl was added to each well of the ELISA plate. Plates were incubated at room temperature for 1 hour with rocking, then washed with 100 μl 1×PBST for 3 times. Each SuperSignal ELISA Femto Maximum Sensitivity substrate was added to a 50-ml tube and mixed, then 100 μl of mixed substrate was added to each well. Plates were shaken for 1 minute then luminescence was measured by Envision plate reader […]. Signal of each well were normalized by no-compound control and no-cell control. IC50 was calculated using Graphic Pad PRISM software.

Sequence of MCL-1 (Q07820 whole entry, looked up, stated change not applied, the tested form may be a part): as the sequence (Q07820 whole entry) above

Structure (SMILES)	pIC50 (MCL-1; MCL-1 Assay IC50 (median))	pIC50 [1]	pIC50 (MCL-1; read-out: MCL-1 Assay IC50 (median))
Cc1c2c(nn1C)C(CCN1CCOCC1)OCCCCn1c(C(=O)O)c(CCCOc3cccc4cc(F)ccc34)c3ccc(Cl)c-2c31 (single isomer, unassigned; enantiomer 2) [Example 18, 4-chloro-7-{3-[(6-fluoronaphthalen-1-yl)oxy]propyl}-2,3-dimethyl-15-[2-(morpholin-4-yl)ethyl]-2,10,11,12,13,15-hexahydropyrazolo[4′,3′:9,10][1,6]oxazacycloundecino[8,7,6-hi]indole-8-carboxylic Acid (Enantiomer 2)]	7.38	5.61	–
CCc1c2c(nn1C)C(CCN1CCOCC1)OCCCCn1c(C(=O)O)c(CCCOc3cccc4cc(F)ccc34)c3ccc(F)c-2c31 (single isomer, unassigned; enantiomer 2) [Example 51, (−)-3-ethyl-4-fluoro-7-{3-[(6-fluoronaphthalen-1-yl)oxy]propyl}-2-methyl-15-[2-(morpholin-4-yl)ethyl]-2,10,11,12,13,15-hexahydropyrazolo[4′,3′:9,10][1,6]oxazacycloundecino[8,7,6-hi]indole-8-carboxylic Acid (Enantiomer 2)]	7.22	4.92	–
CCc1c2c(nn1C)C(CCN1CCOCC1)OCCCCn1c(C(=O)O)c(CCCOc3cccc4cc(F)ccc34)c3ccc(F)c-2c31 (single isomer, unassigned; enantiomer 1) [Example 50, (+)-3-ethyl-4-fluoro-7-{3-[(6-fluoronaphthalen-1-yl)oxy]propyl}-2-methyl-15-[2-(morpholin-4-yl)ethyl]-2,10,11,12,13,15-hexahydropyrazolo[4′,3′:9,10][1,6]oxazacycloundecino[8,7,6-hi]indole-8-carboxylic Acid (Enantiomer 1)]	9.32	7.43	–
CCc1c2c(nn1C)C(c1ccccc1)OCCCCn1c(C(=O)O)c(CCCOc3cccc4cc(F)ccc34)c3ccc(Cl)c-2c31 (racemic) [Example 59, (rac)-4-chloro-3-ethyl-7-{3-[(6-fluoronaphthalen-1-yl)oxy]propyl}-2-methyl-(15-rac)-phenyl-2,10,11,12,13,15-hexahydropyrazolo[4′,3′:9,10][1,6]oxazacycloundecino[8,7,6-hi]indole-8-carboxylic Acid]	8.57	6.72	–
CCc1c2c(nn1C)C1CCCCN1CCCCn1c(C(=O)O)c(CCCOc3cccc4ccccc34)c3ccc(Cl)c-2c31 (racemic) [Example 102, (rac)-18-chloro-1-ethyl-2-methyl-15-[3-(1-naphthyloxy)propyl]-2,3b,4,5,6,7,9,10,11,12-decahydropyrazolo[3′,4′:8,9]pyrido[1′,2′:6,7][1,6]diazacycloundecino[10,11,1-hi]indole-14-carboxylic Acid]	8.85	7.22	–
CCc1c2c(nn1C)C1CCCN1CCCCn1c(C(=O)O)c(CCCOc3cccc4cc(F)ccc34)c3ccc(Cl)c-2c31 (single isomer, unassigned; (+)) [Example 105, (+)-17-chloro-1-ethyl-14-{3-[(6-fluoronaphthalen-1-yl)oxy]propyl}-2-methyl-3b,4,5,6,8,9,10,11-octahydro-2H-pyrazolo[3′,4′:8,9]pyrrolo[1′,2′:6,7][1,6]diazacycloundecino[10,11,1-hi]indole-13-carboxylic Acid]	–	7.20	8.96
CCc1c2c(nn1C)C(CCN1CCOCC1)OCCCCn1c(C(=O)O)c(CCCOc3cccc4ccccc34)c3ccc(F)c-2c31 (racemic) [Example 10, (rac)-3-ethyl-4-fluoro-2-methyl-15-[2-(morpholin-4-yl)ethyl]-7-[3-(naphthalen-1-yloxy)propyl]-2,10,11,12,13,15-hexahydropyrazolo[4′,3′:9,10][1,6]oxazacycloundecino[8,7,6-hi]indole-8-carboxylic Acid]	9.14	6.49	–

Second part, the compound after the results:

pIC50 (MCL-1; MCL-1 Assay IC50 (median))	pIC50 [1]	pIC50 (MCL-1; read-out: MCL-1 Assay IC50 (median))	Structure (SMILES)
8.96	5.63	–	Cc1c2c(nn1C)C(C1CC1)OCCCCn1c(C(=O)O)c(CCCOc3cccc4ccccc34)c3ccc(Cl)c-2c31 (racemic) [Example 28, (rac)-4-Chloro-15-cyclopropyl-2,3-dimethyl-7-{3-[(naphthalen-1-yl)oxy]propyl}-2,10,11,12,13,15-hexahydropyrazolo[4′,3′:9,10][1,6]oxazacycloundecino[8,7,6-hi]indole-8-carboxylic Acid]
8.96	5.90	–	Cc1c2c(nn1C)C(CCO)OCCCCn1c(C(=O)O)c(CCCOc3cccc4ccccc34)c3ccc(Cl)c-2c31 (racemic) [Example 26, (rac)-4-chloro-15-(2-hydroxyethyl)-2,3-dimethyl-7-{3-[(naphthalen-1-yl)oxy]propyl}-2,10,11,12,13,15-hexahydropyrazolo[4′,3′:9,10][1,6]oxazacycloundecino[8,7,6-hi]indole-8-carboxylic Acid]
9.59	6.32	–	Cc1c2c(nn1C)C(CCO)OCCCCn1c(C(=O)O)c(CCCOc3cccc4ccccc34)c3ccc(Cl)c-2c31 (single isomer, unassigned; enantiomer 1) [Example 31, (+)-4-chloro-15-(2-hydroxyethyl)-2,3-dimethyl-7-{3-[(naphthalen-1-yl)oxy]propyl}-2,10,11,12,13,15-hexahydropyrazolo[4′,3′:9,10][1,6]oxazacycloundecino[8,7,6-hi]indole-8-carboxylic Acid (Enantiomer 1)]
7.19	4.90	–	Cc1c2c(nn1C)C(CCN1CCOCC1)OCCCCn1c(C(=O)O)c(CCCOc3cccc4ccccc34)c3ccc(Cl)c-2c31 (single isomer, unassigned; enantiomer 2) [Example 15, 4-chloro-2,3-dimethyl-15-[2-(morpholin-4-yl)ethyl]-7-{3-[(naphthalen-1-yl)oxy]propyl}-2,10,11,12,13,15-hexahydropyrazolo[4′,3′:9,10][1,6]oxazacycloundecino[8,7,6-hi]indole-8-carboxylic Acid (Enantiomer 2)]
8.42	5.71	–	CCc1c2c(nn1C)C(C(F)(F)F)OCCCCn1c(C(=O)O)c(CCCOc3cccc4ccccc34)c3ccc(Cl)c-2c31 (racemic) [Example 27, (rac)-4-Chloro-3-ethyl-2-methyl-7-{3-[(naphthalen-1-yl)oxy]propyl}-15-(trifluoromethyl)-2,10,11,12,13,15-hexahydropyrazolo[4′,3′:9,10][1,6]oxazacycloundecino[8,7,6-hi]indole-8-carboxylic Acid]
9.28	7.08	–	Cc1c2c(nn1C)C(CCN1CCOCC1)OCCCCn1c(C(=O)O)c(CCCOc3cccc4ccccc34)c3ccc(Cl)c-2c31 (single isomer, unassigned; enantiomer 1) [Example 14, 4-chloro-2,3-dimethyl-15-[2-(morpholin-4-yl)ethyl]-7-{3-[(naphthalen-1-yl)oxy]propyl}-2,10,11,12,13,15-hexahydropyrazolo[4′,3′:9,10][1,6]oxazacycloundecino[8,7,6-hi]indole-8-carboxylic Acid (Enantiomer 1)]
9.26	6.81	–	CCc1c2c(nn1C)C(CCO)OCCCCn1c(C(=O)O)c(CCCOc3cccc4cc(F)ccc34)c3ccc(Cl)c-2c31 (single isomer, unassigned; enantiomer 1) [Example 45, (+)-4-chloro-3-ethyl-7-{3-[(6-fluoronaphthalen-1-yl)oxy]propyl}-15-(2-hydroxyethyl)-2-methyl-2,10,11,12,13,15-hexahydropyrazolo[4′,3′:9,10][1,6]oxazacycloundecino[8,7,6-hi]indole-8-carboxylic Acid (Enantiomer 1)]
